Data set [1] has as its system advanced hematologic malignancies that harbor an IDH1 mutation (R/R AML). Description: Phase 1 clinical trial: clinical activity assessed by Investigator using IWG AML and MDS criteria. It is filed as in vivo, human. From the text:
Subjects will undergo radiographic evaluations (CT/MRI), and assessment of bone marrow aspirates and biopsies and peripheral blood to assess the extent of disease, at screening, on Day 15, Day 29 and Day 57, and every 56 days thereafter while on study drug treatment, independent of dose delays and/or dose interruptions, and/or at any time when progression of disease is suspected. Two core tumor biopsies will be obtained at screening, at the time of the first assessment of response, and at the time of disease progression within a window of ±3 days around the planned assessment time point. For patients with acute myelogenous leukemia (AML), response to treatment will be determined by the Investigators based on modified International Working Group (IWG) response criteria.
Disease response to treatment will be assessed through the evaluation of bone marrow biopsies and/or aspirates, along with complete blood counts and examination of peripheral blood films. Subjects will have the extent of their disease assessed and recorded at screening, on Days 15, 29, and 57, every 56 days thereafter while on study drug treatment, independent of dose-delays and/or dose interruptions, and/or at any time when progression of disease is suspected. An assessment also will be conducted at the End of Treatment visit for subjects who discontinue the study due to reasons other than disease progression.
Response to treatment as assessed by the site Investigators using modified IWG (for subjects with hematologic malignancies, such as MDS, MDS/MPN or AML). Two-sided 90% confidence intervals on the response rates will be calculated for each dose level and overall. Data will also be summarized by type of malignancy for subjects in the cohort expansion phase. Descriptive statistics will be used to summarize Ki67 levels from tumor biopsies.

Data set [2] in a line: Phase 1 clinical trial: pharmacokinetics after oral administration. It is filed as in vivo, human. Particulars: patients. On the procedure: A full 72-hour PK/PD profile will be conducted: subjects will be required to remain at the study site for 10 hours on Day −3 and return on Days −2, −1, and 1 for 24, 48, and 72 hour samples, respectively.
All subjects will undergo PK/PD assessments over a 10-hour period on both C1D15 and C2D1. Additional pre-dose urine and/or blood sampling will be conducted on C1D8, C1D22, C2D15, C3D1, C3D15, and on Day 1 of all subsequent cycles. Available bone marrow biopsy samples also will be assessed for 2HG levels.
The blood samples will also be used for the determination of 2HG concentrations and for evaluation of cholesterol and 4β-OH-cholesterol levels.
The PK/PD profile from Day −3 through Day 1 is optional for additional subjects enrolled in the dose escalation phase (i.e., for any subjects beyond the 3 initial subjects enrolled in a cohort) and is not required for subjects enrolled in the expansion cohorts.
All subjects will undergo 10-hour PK/PD sampling on C1D15 and C2D1 (i.e., on Days 15 and 29 of twice daily dosing). […] Blood samples also will be drawn on Days 8 and 22 of Cycle 1, Day 15 of Cycle 2, Days 1 and 15 of Cycle 3, and Day 1 of each cycle thereafter; all samples will be obtained prior to dosing. Additionally, one blood sample will be drawn at the End of Treatment Visit.

On to `N#Cc1ccnc(N2C(=O)CC[C@H]2C(=O)N(c2cncc(F)c2)[C@H](C(=O)NC2CC(F)(F)C2)c2ccccc2Cl)c1` [Compound 1, (S)—N—((S)-1-(2-chlorophenyl)-2-((3,3-difluorocyclobutyl)amino)-2-oxoethyl)-1-(4-cyanopyridin-2-yl)-N-(5-fluoropyridin-3-yl)-5-oxopyrrolidine-2-carboxamide], for which, in data set [1] (Cohort 1 100 mg BID (n = 4)), the “CR (complete response)” value is recorded as 1; the “Overall response rate (ORR = CR, Marrow CR and PR)” value (“Overall response rate” below) is reported as 1/4. Further, in data set [1] (Cohort 2 300 mg QD (n = 4)), the “CR (complete response)” value amounted to 1; the “Overall response rate” value is 1/4; the “PD (progressive disease)” value was determined as 1. In addition, in data set [1] (Cohort 3 500 mg QD (n = 4)), the “CR (complete response)” value worked out at 1; the “Marrow CR (≤5% blasts in BM; no hematological recovery)” value is on record as 2; the “Overall response rate” value is 3/4. Further, in data set [1] (Cohort 4 800 mg QD (n = 2)), the “CR (complete response)” value is 1; the “Overall response rate” value is recorded as 2/2; the “PR (partial response)” value is 1. In data set [1] (Total N = 14), the “CR (complete response)” value is on record as 4; the “Marrow CR (≤5% blasts in BM; no hematological recovery)” value amounted to 2; the “Overall response rate” value is 7/14; the “PD (progressive disease)” value is 1. Further, the “PR (partial response)” value in data set [1] (Total N = 14) was 1. In data set [1] (patient refractory to 7+3, after 2 weeks of therapy), the “blasts in bone marrow” value was < 5%. Besides, the “response of single patient” value in data set [1] (patient, after 2 weeks of therapy, maintained at D28) is “met the criteria for a full CR”. The compound also showed a half-life in data set [2] (human, plasma) of 182 h. In data set [2], the drug accumulation entry is listed as “drug accumulation” and the plasma exposure entry is given as “high plasma exposure”.
